Measurements: patent US20230312550A1, “N-(2-(4-CYANOTHIAZOLIDIN-3-YL)-2-OXOETHYL)-QUINOLINE-4-CARBOXAMIDES” (AstraZeneca AB, priority 2020, published 2023)
Values after ≈ are worked out from the molar mass of the structure shown.

Key:
hFAP (M39-A757) = hFAP (M39-A757) (Homo sapiens (Human), UniProt Q12884); assay: hFAP binding assay (surface plasmon resonance); conditions: SPR, 20° C.; for Kd: n = 1 or geometric mean n = 2-4; for hFAP Binding assay k(off) / hFAP Binding assay k(on): single cycle kinetics
[1] = Metabolic stability in human liver microsomes (HLM); conditions: human
Description: Metabolic stability in HLM was measured as described in J Comput Aided Mol Des 2015, 29, 795.

[2] = Metabolic stability in rat hepatocytes (rHep); conditions: n = 1 or geometric mean of n = 2-3
FAP = FAP (Homo sapiens (Human), UniProt Q12884); assay: hFAP inhibition assay; assay type: biochemical; conditions: Ala-Pro-AMC 20 μM, n = 1 or geometric mean n = 2-3
Procedure, shortened: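 Compounds (10-point, 3-fold dilutions from 50 μM top) were preincubated 15 min at rt in the dark with 0.48 nM hFAP in pH 7.4 Tris/NaCl/Chaps buffer. Reaction was started with substrate (40 μM solution) and ran 30 min at rt. Read by fluorescence (340/460 nm); IC50 from one-site fit.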

[3] = target: human Fibroblast activation protein alpha (hFAP) (Homo sapiens (Human), UniProt Q12884); assay: hFAP inhibition assay (tight binders); assay type: biochemical; conditions: Ala-Pro-AMC 20 μM, n = 1 or geometric mean n = 2-6; further: hFAP 2.4 pM
Description: The plates were read on a PHERAstar® reader with excitation 340 nm and emission 460 nm. Data were analyzed in Genedata Screener®. IC50 values were determined by plotting % inhibition versus log compound concentration and using a one site dose response model.

[4] = target: Prolyl endopeptidase, Prolyl Oligopeptidase (hPREP) (Homo sapiens (Human), UniProt P48147); assay: hPrep inhibition assay; assay type: biochemical; conditions: hPREP 0.6 nM, Z-Gly-Pro-amino-methylcoumarin 50 μM; read-out: PREP IC50
Procedure, shortened: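 Fluorogenic read-out (340 nm excitation, 460 nm emission) after 20 min at rt, using 50 μM final Z-Gly-Pro-aminomethylcoumarin and 0.6 nM final enzyme, following 15 min compound preincubation. Buffer pH 7.5 with glutathione and Triton X-100. IC50 via one-site model on % inhibition vs log concentration.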

Kinetic solubility = conditions: kinetic from dmso stock
Description: Kinetic solubility was measured as described in Comput Aided Mol Des 2015, 29, 795.

[5] = HLM CLint, n = 1 or average of n = 2-3
[6] = Solubility, kinetic solubility, n = 1 or average of n = 2-3

Chain of hFAP (M39-A757) (Q12884 39-757): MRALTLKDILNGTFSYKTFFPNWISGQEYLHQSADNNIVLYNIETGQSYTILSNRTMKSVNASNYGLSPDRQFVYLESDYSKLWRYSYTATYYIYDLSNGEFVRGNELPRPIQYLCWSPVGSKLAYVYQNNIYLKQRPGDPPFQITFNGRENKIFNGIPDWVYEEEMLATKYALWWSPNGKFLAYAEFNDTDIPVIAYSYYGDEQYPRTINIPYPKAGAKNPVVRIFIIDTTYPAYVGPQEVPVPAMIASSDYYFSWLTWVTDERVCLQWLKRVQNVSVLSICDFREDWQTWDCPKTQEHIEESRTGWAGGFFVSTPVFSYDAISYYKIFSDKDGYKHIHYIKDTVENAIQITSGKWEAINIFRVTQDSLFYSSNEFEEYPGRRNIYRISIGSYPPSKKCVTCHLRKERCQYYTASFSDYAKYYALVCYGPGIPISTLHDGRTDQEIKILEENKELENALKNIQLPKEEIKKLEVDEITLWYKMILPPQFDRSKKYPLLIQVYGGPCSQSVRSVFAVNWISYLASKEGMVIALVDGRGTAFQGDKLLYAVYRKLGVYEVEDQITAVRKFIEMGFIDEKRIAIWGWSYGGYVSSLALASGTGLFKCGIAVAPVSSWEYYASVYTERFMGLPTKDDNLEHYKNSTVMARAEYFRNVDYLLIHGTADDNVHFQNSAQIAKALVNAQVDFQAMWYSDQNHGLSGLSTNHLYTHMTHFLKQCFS
Chain of Prolyl endopeptidase, Prolyl Oligopeptidase (hPREP) (P48147 whole entry): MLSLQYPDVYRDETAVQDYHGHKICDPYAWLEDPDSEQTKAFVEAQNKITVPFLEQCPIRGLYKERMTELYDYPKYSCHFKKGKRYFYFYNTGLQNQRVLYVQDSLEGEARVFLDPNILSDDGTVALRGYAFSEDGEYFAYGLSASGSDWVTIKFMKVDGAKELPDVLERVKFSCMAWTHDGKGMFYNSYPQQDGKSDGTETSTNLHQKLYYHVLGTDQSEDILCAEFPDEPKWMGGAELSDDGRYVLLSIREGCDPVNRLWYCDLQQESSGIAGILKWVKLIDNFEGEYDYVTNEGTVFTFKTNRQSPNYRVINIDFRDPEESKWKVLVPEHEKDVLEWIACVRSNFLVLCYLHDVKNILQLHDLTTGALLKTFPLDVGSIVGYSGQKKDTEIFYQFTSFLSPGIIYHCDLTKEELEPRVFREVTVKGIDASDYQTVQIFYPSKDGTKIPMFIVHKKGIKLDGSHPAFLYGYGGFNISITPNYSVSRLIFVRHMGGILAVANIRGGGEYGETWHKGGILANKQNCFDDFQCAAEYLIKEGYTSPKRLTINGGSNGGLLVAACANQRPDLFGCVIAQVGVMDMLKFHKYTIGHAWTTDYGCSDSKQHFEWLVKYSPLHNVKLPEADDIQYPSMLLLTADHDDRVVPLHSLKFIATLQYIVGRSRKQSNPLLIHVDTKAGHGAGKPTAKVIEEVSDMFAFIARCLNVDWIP
Chain of FAP (Q12884 38-760): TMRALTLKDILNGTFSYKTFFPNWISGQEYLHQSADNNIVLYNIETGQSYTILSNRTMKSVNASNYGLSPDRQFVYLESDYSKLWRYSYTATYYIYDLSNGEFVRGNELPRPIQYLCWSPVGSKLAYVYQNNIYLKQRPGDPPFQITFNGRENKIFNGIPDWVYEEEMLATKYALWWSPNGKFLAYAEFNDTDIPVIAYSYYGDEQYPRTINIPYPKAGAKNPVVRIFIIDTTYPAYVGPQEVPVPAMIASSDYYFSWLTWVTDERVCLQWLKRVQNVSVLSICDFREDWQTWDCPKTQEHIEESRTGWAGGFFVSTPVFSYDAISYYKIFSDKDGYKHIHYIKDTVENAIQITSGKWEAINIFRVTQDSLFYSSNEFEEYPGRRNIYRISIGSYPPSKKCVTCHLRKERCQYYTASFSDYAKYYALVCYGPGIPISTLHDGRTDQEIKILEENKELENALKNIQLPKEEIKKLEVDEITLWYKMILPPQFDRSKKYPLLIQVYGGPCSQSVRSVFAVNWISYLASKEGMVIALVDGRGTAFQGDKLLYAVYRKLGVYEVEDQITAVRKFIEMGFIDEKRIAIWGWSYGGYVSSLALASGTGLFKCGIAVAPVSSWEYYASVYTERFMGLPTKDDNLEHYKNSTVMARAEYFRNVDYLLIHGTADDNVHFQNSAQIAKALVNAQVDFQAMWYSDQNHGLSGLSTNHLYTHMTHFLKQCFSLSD
Chain of human Fibroblast activation protein alpha (hFAP) (Q12884 38-760): as above

Compound	Kd (hFAP (M39-A757)) [nM]	microsomal CLint [1, 5] [µL/min/mg]	rHep CLint [2] [μL/min/1E6]	IC50 (FAP; hFAP […]) [nM]	IC50 [3] [nM]	IC50 [4] [nM]	solubility (Kinetic solubility; [6]) [µM]	hFAP Binding assay k(off) (hFAP (M39-A757)) [s⁻¹]	hFAP Binding assay k(on) (hFAP (M39-A757)) [M⁻¹ s⁻¹]	IC50 (FAP; hFAP 0.24 nM) [nM]	microsomal CLint [1] [µL/min/mg]	solubility (Kinetic solubility) [µM]
C[C@@H]1CCN(c2ccc3nccc(C(=O)NCC(=O)N4CSC[C@H]4C#N)c3c2)CCO1 [Example 61, N-(2-((R)-4-Cyanothiazolidin-3-yl)-2-oxoethyl)-6-((R)-7-methyl-1,4-oxazepan-4-yl)quinoline-4-carboxamide]	0.062	47	26	0.21	0.06	390	670 (≈ 294 µg/mL)	–	–	–	–	–
C[C@H]1COCCCN1c1ccc2nccc(C(=O)NCC(=O)N3CSC[C@H]3C#N)c2c1 [Example 63, N-(2-((R)-4-Cyanothiazolidin-3-yl)-2-oxoethyl)-6-((S)-3-methyl-1,4-oxazepan-4-yl)quinoline-4-carboxamide]	0.03	180	30	0.33	0.19	400	690 (≈ 303 µg/mL)	0.000059	4100000	–	–	–
N#C[C@@H]1CSCN1C(=O)CNC(=O)c1ccnc2ccc(N3C[C@H](F)[C@@H](F)C3)cc12 [Example 213, N-(2-((R)-4-Cyanothiazolidin-3-yl)-2-oxoethyl)-6-((3S,4S)-3,4-difluoro-pyrrolidin-1-yl)quinoline-4-carboxamide]	0.039	31	19	0.18	0.039	470	100 (≈ 43.1 µg/mL)	0.00017	4400000	–	–	–
C[C@@H]1CCN(c2ccc3nccc(C(=O)NCC(=O)N4CSC[C@H]4C#N)c3c2)C1 [Example 55, N-(2-((R)-4-Cyanothiazolidin-3-yl)-2-oxoethyl)-6-((R)-3-methylpyrrolidin-1-yl)quinoline-4-carboxamide]	0.036	55	63	0.25	0.083	440	11 (≈ 4.5 µg/mL)	0.00025	6700000	–	–	–
N#C[C@@H]1CSCN1C(=O)CNC(=O)c1ccnc2ccc(N3CCOCC3)c(Cl)c12 [Example 101, (R)-5-Chloro-N-(2-(4-cyanothiazolidin-3-yl)-2-oxoethyl)-6-morpholino-quinoline-4-carboxamide]	0.034	8.6	2.3	0.38	0.35	380	> 1000	0.000025	740000	–	–	–
N#C[C@@H]1CSCN1C(=O)CNC(=O)c1ccnc2ccc(N3CCSCC3)cc12 [Example 3, (R)—N-(2-(4-Cyanothiazolidin-3-yl)-2-oxoethyl)-6-thiomorpholinoquinoline-4-carboxamide]	0.095	75	28	0.24	0.13	690	700 (≈ 299 µg/mL)	0.0004	4100000	–	–	–
N#C[C@@H]1CSCN1C(=O)CNC(=O)c1ccnc2ccc(N3CC(F)(c4ccccc4)C3)cc12 [Example 182, (R)—N-(2-(4-Cyanothiazolidin-3-yl)-2-oxoethyl)-6-(3-fluoro-3-phenyl-azetidin-1-yl)quinoline-4-carboxamide]	0.093	100	26	0.41	0.19	210	230 (≈ 109 µg/mL)	0.000042	250000	–	–	–
CC1(CF)CCN(c2ccc3nccc(C(=O)NCC(=O)N4CSC[C@H]4C#N)c3c2)CC1 [Example 37, (R)—N-(2-(4-Cyanothiazolidin-3-yl)-2-oxoethyl)-6-(4-(fluoromethyl)-4-methylpiperidin-1-yl)quinoline-4-carboxamide]	0.028	66	30	0.22	0.19	270	210 (≈ 95.7 µg/mL)	0.000030	1000000	–	–	–
CC(C)n1nccc1-c1ccc2nccc(C(=O)NCC(=O)N3CSC[C@H]3C#N)c2c1 [Example 197, (R)—N-(2-(4-Cyanothiazolidin-3-yl)-2-oxoethyl)-6-(1-isopropyl-1H-pyrazol-5-yl)quinoline-4-carboxamide]	0.75	15	5.3	0.72	0.42	1900	6 (≈ 2.61 µg/mL)	0.000066	88000	–	–	–
C[C@@H]1CCCN1c1ccc2nccc(C(=O)NCC(=O)N3CSC[C@H]3C#N)c2c1 [Example 211, N-(2-((R)-4-cyanothiazolidin-3-yl)-2-oxoethyl)-6-((R)-2-methylpyrrolidin-1-yl)quinoline-4-carboxamide]	0.049	200	190	0.2	0.1	110	110 (≈ 45 µg/mL)	0.0002	5900000	–	–	–
N#C[C@@H]1CSCN1C(=O)CNC(=O)c1ccnc2ccc(N3CC(Cc4ccc(Cl)cc4)C3)cc12 [Example 187, (R)-6-(3-(4-Chlorobenzyl)azetidin-1-yl)-N-(2-(4-cyanothiazolidin-3-yl)-2-oxoethyl)quinoline-4-carboxamide]	0.07	190	140	0.098	0.072	38	19 (≈ 9.61 µg/mL)	0.00022	3100000	–	–	–
C[C@H]1CC(F)(F)CCN1c1ccc2nccc(C(=O)NCC(=O)N3CSC[C@H]3C#N)c2c1 (mixture of isomers) [Example 44, N-(2-((R)-4-Cyanothiazolidin-3-yl)-2-oxoethyl)-6-((RS)-4,4-difluoro-2-methylpiperidin-1-yl)quinoline-4-carboxamide]	0.042	220	160	–	0.074	540	140	0.000072	1700000	0.22	–	–
N#C[C@@H]1CSCN1C(=O)CNC(=O)c1ccnc2ccc(N3CC[C@@H](F)C3)cc12 [Example 52, N-(2-((R)-4-Cyanothiazolidin-3-yl)-2-oxoethyl)-6-((R)-3-fluoropyrrolidin-1-yl)quinoline-4-carboxamide]	0.044	22	21	0.2	0.045	400	57 (≈ 23.6 µg/mL)	0.00019	6800000	–	–	–
N#C[C@@H]1CSCN1C(=O)CNC(=O)c1ccnc2ccc(N3CC4CC4C3)cc12 (stereo partly drawn) [Example 206, 6-(3-Azabicyclo[3.1.0]hexan-3-yl)-N-(2-((R)-4-cyanothiazolidin-3-yl)-2-oxoethyl)quinoline-4-carboxamide]	0.033	46	130	0.22	0.065	330	26 (≈ 10.6 µg/mL)	–	–	–	–	–
N#C[C@@H]1CSCN1C(=O)CNC(=O)c1ccnc2ccc(N3CC4(CC4)C[C@@H]3CF)cc12 [Example 58, N-(2-((R)-4-Cyanothiazolidin-3-yl)-2-oxoethyl)-6-((R)-6-(fluoromethyl)-5-azaspiro[2.4]heptan-5-yl)quinoline-4-carboxamide]	0.016	–	72	0.23	0.076	180	–	0.091	8800000000	–	140	5.8 (≈ 2.63 µg/mL)
